# The NIST ThermoML archive (doi:10.1021/je100624p)
# Numbers after ± are expanded uncertainties.
# Conditions: Liquid, Closed cell (Static) method
SMILES,vapor or sublimation pressure (303.15 K),vapor or sublimation pressure (313.15 K),vapor or sublimation pressure (308.15 K),vapor or sublimation pressure (318.15 K)
CCO [ethanol],10.43 ± 0.29 kPa,17.84 ± 0.32 kPa,,
CC(C)O [propan-2-ol],7.933 ± 0.28 kPa,,10.72 ± 0.29 kPa,
O [water],4.186 ± 0.27 kPa,7.346 ± 0.27 kPa,5.493 ± 0.27 kPa,9.493 ± 0.27 kPa
